# From patent US10336735B2, “Small molecule inhibitors of fibrosis” (THE CALIFORNIA INSTITUTE FOR BIOMEDICAL RESEARCH, priority 2014, dated 2019)
# System: primary human lung fibroblasts and primary rodent HSCs
# Assay: High content imaging assay (α-SMA staining, cell morphology) of fibroblast to myofibroblast transdifferentiation, confirmed by Western blot and RT-PCR
# Details: imaging and western based activity
# Excerpt: High content imaging assays have been established, using primary human lung fibroblasts and primary rodent HSCs, that enable the identification of small molecules that either inhibit myofibroblast formation/activation or induce the reversion of activated myofibroblasts to a quiescent fibroblast state. Conditions, involving serum starvation and subsequent TGF-β treatment, have been identified that facilitate robust in vitro transdifferentiation in a miniaturized (384 well plate) format that is amenable to high throughput small molecule screening. The inhibition assay is based on α-SMA immunofluorescent staining and cell morphology changes associated with fibroblast to myofibroblast transdifferentiation, Using the selective ALK-5 TGF-β1 receptor inhibitor ([…]) as a positive control, the inhibition assay has been used to initiate a screen of a collection of ˜100,000 small molecules that consists of bioactive small molecules and a diversity set that has been assembled based on 2D and 3D structural diversity and inherent “drug-likeness” properties. Preliminary screening led to the identification of multiple previously identified anti-fibrotic molecules.
# A high content imaging assay, based on α-SMA staining and cell morphological changes associated with fibroblast to myofibroblast transdifferentiation, was established using primary human lung fibroblasts and primary rodent HSCs. Conditions, involving serum starvation and subsequent TGF-β treatment, were identified that facilitate robust in vitro transdifferentiation in a miniaturized (384 well plate) format that is amenable to high throughput small molecule screening. A selective ALK-5 TGF-β1 receptor inhibitor (SB-431542) was used as a positive control. […] This assay was used to evaluate compounds of Formula (I), (Ia), (II), (IIa), (III), (IIIa), (IV), (IVa), (IVb), (V), (Va), (VI), (VIa), (VIb), (VIc), (VII), (VIIa), (VIII), (VIIIa), (IX), (IXa), (X), or (Xa) generated from medicinal chemistry efforts.
# The activity of Itraconazole and compounds of Formula (I), (Ia), (II), (IIa), (III), (IIIa), (IV), (IVa), (IVb), (V), (Va), (VI), (VIa), (VIb), (VIc), (VII), (VIIa), (VIII), (VIIIa), (IX), (IXa), (X), or (Xa) was confirmed by analyzing changes in gene expression of multiple genes associated with fibroblast to myofibroblast transdifferentiation using biochemical methods (i.e., Western blot and RT-PCR). These 4-day assays were used to evaluate sets of 6 compounds at a time in 4-point dose response fashion.
# The EC50 for (imaging and western based) activity is graded as: +++=<500 nM; ++=500 nM to 5 μM; +=5 to 30 μM); −=>30 μM; NT=Not Tested.
structure (smiles),measurement,setting,value
CCC(C)n1ncn(-c2ccc(N3CCN(c4ccc(OC[C@H]5OC[C@](Cn6cncn6)(c6ccc(F)cc6F)O5)cc4)CC3)cc2)c1=O (mixture of isomers) [compound 200],EC50,"Homo sapiens, Fibroblast",< 0.5 µM
CCC(C)n1cnn(-c2ccc(N3CCN(c4ccc(OC[C@@H]5CO[C@@](Cc6ccnnc6)(c6ccccc6)O5)cc4)CC3)cc2)c1=O (mixture of isomers) [Compound 102],EC50,"Homo sapiens, Fibroblast",0.5 to 5 µM
"CC(C)N1CCN(c2ccc(N3CCN(c4ccc(OC[C@H]5OC[C@](Cn6nccn6)(c6ccc(F)cc6F)O5)cc4)CC3)cc2)C1=O (racemic) [Compound 203, cis (±)-1-(4-(4-(4-((4-((2H-1,2,3-triazol-2-yl)methyl)-4-(2,4-difluorophenyl)-1,3-dioxolan-2-yl)methoxy)phenyl)piperazin-1-yl)phenyl)-3-isopropylimidazolidin-2-one]",EC50,"Homo sapiens, Fibroblast",> 30 µM
CC(=O)N1CCN(c2ccc(OC[C@@H]3CO[C@@](Cn4nccn4)(c4ccc(Cl)cc4Cl)O3)cc2)CC1 [Compound 4],EC50,"Homo sapiens, Fibroblast",> 30 µM
CC(C)N1CCN(c2ccc(OC[C@@H]3CO[C@@](Cn4nccn4)(c4ccc(Cl)cc4Cl)O3)cc2)CC1 [Compound 5],EC50,"Homo sapiens, Fibroblast",5 to 30 µM
CCC(C)n1ncn(-c2ccc(OC[C@@H]3CO[C@@](Cn4nccn4)(c4ccc(Cl)cc4Cl)O3)cc2)c1=O (stereo partly drawn) [Compound 6],EC50,"Homo sapiens, Fibroblast",> 30 µM
CCC(C)n1ncn(-c2ccc(N3CCN(C[C@@H]4CO[C@@](Cn5nccn5)(c5ccc(Cl)cc5Cl)O4)CC3)cc2)c1=O (stereo partly drawn) [Compound 7],EC50,"Homo sapiens, Fibroblast",> 30 µM
CCC(C)n1ncn(-c2ccc(-c3ccc(OC[C@@H]4CO[C@@](Cn5nccn5)(c5ccc(Cl)cc5Cl)O4)cc3)cc2)c1=O (stereo partly drawn) [Compound 8],EC50,"Homo sapiens, Fibroblast",> 30 µM
CC(=O)C(C)n1cnn(-c2ccc(N3CCN(c4ccc(OC[C@@H]5CO[C@@](Cn6nccn6)(c6ccc(Cl)cc6Cl)O5)cc4)CC3)cc2)c1=O (stereo partly drawn) [Compound 10],EC50,"Homo sapiens, Fibroblast",0.5 to 5 µM
CCCC(C)n1ncn(-c2ccc(N3CCN(c4ccc(OC[C@@H]5CO[C@@](Cn6nccn6)(c6ccc(Cl)cc6Cl)O5)cc4)CC3)cc2)c1=O (stereo partly drawn) [Compound 12],EC50,"Homo sapiens, Fibroblast",0.5 to 5 µM
CCC(CC)n1ncn(-c2ccc(N3CCN(c4ccc(OC[C@@H]5CO[C@@](Cn6nccn6)(c6ccc(Cl)cc6Cl)O5)cc4)CC3)cc2)c1=O [Compound 13],EC50,"Homo sapiens, Fibroblast",0.5 to 5 µM
O=c1n(-c2ccc(N3CCN(c4ccc(OC[C@@H]5CO[C@@](Cn6nccn6)(c6ccc(Cl)cc6Cl)O5)cc4)CC3)cc2)cnn1CC1CCCC1 [Compound 14],EC50,"Homo sapiens, Fibroblast",< 0.5 µM
O=c1n(-c2ccc(N3CCN(c4ccc(OC[C@@H]5CO[C@@](Cn6nccn6)(c6ccccc6)O5)cc4)CC3)cc2)cnn1CC1CCNCC1 [Compound 15],EC50,"Homo sapiens, Fibroblast",5 to 30 µM
CC(O)C(C)n1cnn(-c2ccc(N3CCN(c4ccc(OC[C@@H]5CO[C@@](Cn6nccn6)(c6ccccc6)O5)cc4)CC3)cc2)c1=O (stereo partly drawn) [Compound 16],EC50,"Homo sapiens, Fibroblast",5 to 30 µM
CC(CCN)n1ncn(-c2ccc(N3CCN(c4ccc(OC[C@@H]5CO[C@@](Cn6nccn6)(c6ccccc6)O5)cc4)CC3)cc2)c1=O (stereo partly drawn) [Compound 17],EC50,"Homo sapiens, Fibroblast",5 to 30 µM
CC(C)n1ncn(-c2ccc(N3CCN(c4ccc(OC[C@@H]5CO[C@@](Cn6nccn6)(c6ccccc6)O5)cc4)CC3)cc2)c1=O [Compound 18],EC50,"Homo sapiens, Fibroblast",5 to 30 µM
CC(C)Cn1ncn(-c2ccc(N3CCN(c4ccc(OC[C@@H]5CO[C@@](Cn6nccn6)(c6ccccc6)O5)cc4)CC3)cc2)c1=O [Compound 19],EC50,"Homo sapiens, Fibroblast",0.5 to 5 µM
O=c1n(-c2ccc(N3CCN(c4ccc(OC[C@@H]5CO[C@@](Cn6nccn6)(c6ccccc6)O5)cc4)CC3)cc2)cnn1CC1CCCC1 [Compound 20],EC50,"Homo sapiens, Fibroblast",5 to 30 µM
CCC(CC)n1ncn(-c2ccc(N3CCN(c4ccc(OC[C@@H]5CO[C@@](Cn6nccn6)(c6ccccc6)O5)cc4)CC3)cc2)c1=O [Compound 21],EC50,,< 0.5 µM
CCCC(C)n1ncn(-c2ccc(N3CCN(c4ccc(OC[C@@H]5CO[C@@](Cn6nccn6)(c6ccc(C#N)cc6C)O5)cc4)CC3)cc2)c1=O (stereo partly drawn) [Compound 23],EC50,"Homo sapiens, Fibroblast",0.5 to 5 µM
CCC(C)n1ncn(-c2ccc(N3CCN(c4ccc(OC[C@@H]5CO[C@@](Cn6nccn6)(c6ccc(C#N)cc6C)O5)cc4)CC3)cc2)c1=O (stereo partly drawn) [Compound 24],EC50,"Homo sapiens, Fibroblast",0.5 to 5 µM
Cc1cc(C#N)ccc1[C@]1(Cn2nccn2)OC[C@@H](COc2ccc(N3CCN(c4ccc(-n5cnn(CC6CCCC6)c5=O)cc4)CC3)cc2)O1 [Compound 25],EC50,"Homo sapiens, Fibroblast",0.5 to 5 µM
CCC(C)n1ncn(-c2ccc(N3CCN(c4ccc(OC[C@@H]5CO[C@@](Cn6nccn6)(c6ccc(C#N)cc6Cl)O5)cc4)CC3)cc2)c1=O (stereo partly drawn) [Compound 26],EC50,"Homo sapiens, Fibroblast",5 to 30 µM
CCC(C)n1ncn(-c2ccc(N3CCN(c4ccc(OC[C@@H]5CO[C@@](Cn6nccn6)(c6cc(C#N)ccc6Cl)O5)cc4)CC3)cc2)c1=O (stereo partly drawn) [Compound 27],EC50,"Homo sapiens, Fibroblast",5 to 30 µM
CCC(C)n1ncn(-c2ccc(N3CCN(c4ccc(OC[C@@H]5CO[C@@](Cn6nccn6)(c6cc(C#N)ccc6C)O5)cc4)CC3)cc2)c1=O (stereo partly drawn) [Compound 28],EC50,"Homo sapiens, Fibroblast",5 to 30 µM
CCC(C)n1ncn(-c2ccc(N3CCN(c4ccc(OC[C@@H]5CO[C@@](Cn6nccn6)(c6cccc(Cl)c6Cl)O5)cc4)CC3)cc2)c1=O (stereo partly drawn) [Compound 29],EC50,"Homo sapiens, Fibroblast",< 0.5 µM
CCC(C)n1ncn(-c2ccc(N3CCN(c4ccc(OC[C@@H]5CO[C@@](Cn6nccn6)(c6ccc(Br)cc6Br)O5)cc4)CC3)cc2)c1=O (stereo partly drawn) [Compound 30],EC50,"Homo sapiens, Fibroblast",0.5 to 5 µM
CCC(C)n1ncn(-c2ccc(N3CCN(c4ccc(OC[C@@H]5CO[C@@](Cn6nccn6)(c6ccc(Cl)cc6Br)O5)cc4)CC3)cc2)c1=O (stereo partly drawn) [Compound 31],EC50,"Homo sapiens, Fibroblast",< 0.5 µM
CCC(C)n1ncn(-c2ccc(N3CCN(c4ccc(OC[C@@H]5CO[C@@](Cn6nccn6)(c6cc(Cl)ccc6Cl)O5)cc4)CC3)cc2)c1=O (stereo partly drawn) [Compound 33],EC50,"Homo sapiens, Fibroblast",0.5 to 5 µM
CCC(C)n1ncn(-c2ccc(N3CCN(c4ccc(OC[C@@H]5CO[C@@](Cn6nccn6)(c6cc(Cl)ccc6C)O5)cc4)CC3)cc2)c1=O (stereo partly drawn) [Compound 34],EC50,"Homo sapiens, Fibroblast",0.5 to 5 µM
CCC(C)n1ncn(-c2ccc(N3CCN(c4ccc(OC[C@@H]5CO[C@@](Cn6nccn6)(c6cc(Cl)ccc6Br)O5)cc4)CC3)cc2)c1=O (stereo partly drawn) [Compound 35],EC50,"Homo sapiens, Fibroblast",0.5 to 5 µM
CCC(C)n1ncn(-c2ccc(N3CCN(c4ccc(OC[C@@H]5CO[C@@](Cn6nccn6)(c6ccc(CN)cc6)O5)cc4)CC3)cc2)c1=O (stereo partly drawn) [Compound 37],EC50,"Homo sapiens, Fibroblast",0.5 to 5 µM
CCC(C)n1ncn(-c2ccc(N3CCN(c4ccc(OC[C@@H]5CO[C@@](Cn6nccn6)(c6ncccn6)O5)cc4)CC3)cc2)c1=O (stereo partly drawn) [Compound 38],EC50,"Homo sapiens, Fibroblast",> 30 µM
CCC(C)n1ncn(-c2ccc(N3CCN(c4ccc(OC[C@@H]5CO[C@@](CCl)(c6ccc(Cl)cc6Cl)O5)cc4)CC3)cc2)c1=O (stereo partly drawn) [Compound 39],EC50,"Homo sapiens, Fibroblast",0.5 to 5 µM
CCC(C)n1ncn(-c2ccc(N3CCN(c4ccc(OC[C@@H]5CO[C@@](CC)(c6ccc(Cl)cc6Cl)O5)cc4)CC3)cc2)c1=O (stereo partly drawn) [Compound 40],EC50,"Homo sapiens, Fibroblast",0.5 to 5 µM
CCC(C)n1ncn(-c2ccc(N3CCN(c4ccc(OC[C@@H]5CO[C@@](Cn6ccc(=O)cc6)(c6ccc(Cl)cc6Cl)O5)cc4)CC3)cc2)c1=O (stereo partly drawn) [Compound 41],EC50,"Homo sapiens, Fibroblast",< 0.5 µM
CCC(C)n1ncn(-c2ccc(N3CCN(c4ccc(OC[C@@H]5CO[C@@](Cn6ncc(Cl)c(Cl)c6=O)(c6ccc(Cl)cc6Cl)O5)cc4)CC3)cc2)c1=O (stereo partly drawn) [Compound 42],EC50,"Homo sapiens, Fibroblast",5 to 30 µM
CCC(C)n1ncn(-c2ccc(N3CCN(c4ccc(OC[C@@H]5CO[C@@](CN6CCOCC6)(c6ccc(Cl)cc6Cl)O5)cc4)CC3)cc2)c1=O (stereo partly drawn) [Compound 44],EC50,"Homo sapiens, Fibroblast",> 30 µM
CCC(C)n1ncn(-c2ccc(N3CCN(c4ccc(OC[C@@H]5CO[C@](CN6CCOCC6)(c6ccc(Cl)cc6Cl)O5)cc4)CC3)cc2)c1=O (stereo partly drawn) [Compound 45],EC50,"Homo sapiens, Fibroblast",> 30 µM
CCC(C)n1ncn(-c2ccc(N3CCN(c4ccc(OC[C@@H]5CO[C@@](Cn6cccn6)(c6ccccc6)O5)cc4)CC3)cc2)c1=O (stereo partly drawn) [Compound 48],EC50,"Homo sapiens, Fibroblast",< 0.5 µM
CCC(C)n1ncn(-c2ccc(N3CCN(c4ccc(OC[C@@H]5CO[C@@](Cn6ncc7ccccc76)(c6ccc(Cl)cc6Cl)O5)cc4)CC3)cc2)c1=O (stereo partly drawn) [Compound 49],EC50,"Homo sapiens, Fibroblast",0.5 to 5 µM
CCC(C)n1ncn(-c2ccc(N3CCN(c4ccc(OC[C@@H]5CO[C@@](Cn6nc7ccccc7n6)(c6ccc(C#N)cc6C)O5)cc4)CC3)cc2)c1=O (stereo partly drawn) [Compound 50],EC50,"Homo sapiens, Fibroblast",0.5 to 5 µM
CCC(C)n1ncn(-c2ccc(N3CCN(c4ccc(OC[C@@H]5CO[C@@](Cn6cccn6)(c6ccc(C#N)cc6C)O5)cc4)CC3)cc2)c1=O (stereo partly drawn) [Compound 51],EC50,"Homo sapiens, Fibroblast",< 0.5 µM
CCC(C)n1ncn(-c2ccc(N3CCN(c4ccc(OC[C@@H]5CO[C@@](CCn6nccn6)(c6ccc(Cl)cc6Cl)O5)cc4)CC3)cc2)c1=O (stereo partly drawn) [Compound 52],EC50,"Homo sapiens, Fibroblast",< 0.5 µM
CCC(C)n1ncn(-c2ccc(N3CCN(c4ccc(OC[C@@H]5CO[C@@](Cn6nccn6)(c6ccc(Cl)cc6Cl)O5)cn4)CC3)cc2)c1=O (stereo partly drawn) [Compound 53],EC50,"Homo sapiens, Fibroblast",0.5 to 5 µM
